Measured values reported in paper PMC8887546, “Design and Synthesis of Brain Penetrant Glycopeptide Analogues of PACAP With Neuroprotective Potential for Traumatic Brain Injury and Parkinsonism” (Frontiers in drug discovery, 2022).

What was measured:
[1] = test system: C57BL/6 mice, diffuse TBI; assay: Sleep-wake parameters (piezoelectric sleep cage) after TBI; format: in vivo, mouse; conditions: 10 mg/kg i.p. 30 min prior to TBI
Procedure: 30 min prior to TBI or sham injury, mice were randomly assigned to a therapeutic group and received an intraperitoneal injection of 2LS80Mel (10 mg/kg) or sterile saline (0.25 ml). Groups were as follows: TBI-2LS80Mel n = 17; TBI-vehicle n = 17; sham n = 22 (vehicle n = 11, 2LS80Mel n = 11).
Mice (19–24 g) were subjected to midline fluid percussion injury (mFPI) consistent with methods previously described ([Lifshitz, 2009]; [Harrison et al., 2014]; [Rowe et al., 2014a]; [Rowe et al., 2014b]; [Rowe et al., 2014c]). Mice were anesthetized using 5% isoflurane in 100% oxygen for 5 min and the head of the mouse was placed in a stereotaxic frame with continuously delivered isoflurane at 2.5% via nosecone. […] The injury hub was closed using a Luer-Loc cap and mice were placed in a heated recovery cage and monitored until they were ambulatory before being returned to their respective sleep cages.
For injury induction 24 h post-surgery, mice were re-anesthetized with 5% isoflurane delivered for 3 min. […] Injured mice were monitored for presence of a forearm fencing response and righting reflex times were recorded as indicators of injury severity ([Hosseini and Lifshitz, 2009]). […] After spontaneously righting, mice were placed in a heated recovery cage and monitored until they were ambulatory (approximately 5–15 min) before being returned to their piezoelectric sleep cage (see below). […]

[2] = test system: Sprague Dawley rats, 6-OHDA lesion; assay: Unbiased stereology of TH-positive neurons in SNc (study 1); format: in vivo, rat; conditions: mild lesion (25%), 15 mg/kg i.p. 6 h prior to and 24 h post-lesion
Procedure: Rats were treated with 2LS98Lac or saline (vehicle) as outlined in the Schemes in Figures 9A,B via intraperitoneal (i.p.) injection (15 mg/kg). All animals were made hemi-parkinsonian with unilateral, striatal 6-hydroxydopamine (Sigma Aldrich, St. Louis, MO) injections. After surgery, behavioral assessments were done at 2- and 4-weeks post-surgery. 24 h after the last test animals were either euthanized and whole brains were harvested for future biochemical analysis or perfused and brains collected for immunohistochemistry and stereological assessment of tyrosine hydroxylase-positive (TH+) cells remaining in the SNc. In study 1: n = 16 each group were included, and all underwent the behavioral analysis: n = 16, and for the stereology in the SNc, n = 8 each group was used. In study 2: n = 23 each group were included. […]
Stereological probes were applied using a Zeiss Imager M2 microscope (Carl Zeiss, Jena, Germany) equipped with StereoInvestigator software (MBF Bioscience, VT, United States) according to previously published methods ([Corenblum et al., 2015]; [Anandhan et al., 2021]). Using the optical fractionator probe, cells were counted under the ×63 oil immersion objective by a blinded observer. TH+ cells were counted in sections 480 μm apart using a grid size of 170 × 100 μm and counting frame size of 75 × 75 μm. […]

Compound	Cumulative minutes slept in the first 6 h post-injury [1]	Sleep in the first dark period [1]	TH-positive neurons in SNc, lesioned vs intact side [2]
CC[C@H](C)[C@H](NC(=O)CNC(=O)[C@H](CC(=O)O)NC(=O)[C@H](CO)NC(=O)[C@@H](N)Cc1c[nH]cn1)C(=O)N[C@@H](Cc1ccccc1)C(=O)N[C@H](C(=O)N[C@@H](CC(=O)O)C(=O)N[C@@H](CO)C(=O)N[C@@H](Cc1ccc(O)cc1)C(=O)N[C@@H](CO)C(=O)N[C@@H](CCCNC(=N)N)C(=O)N[C@@H](Cc1ccc(O)cc1)C(=O)N[C@@H](CCCNC(=N)N)C(=O)N[C@@H](CCCCN)C(=O)N[C@@H](CCC(N)=O)C(=O)N[C@@H](CC(C)C)C(=O)N[C@@H](C)C(=O)N[C@H](C(=O)N[C@@H](CCCCN)C(=O)N[C@@H](CCCCN)C(=O)N[C@@H](Cc1ccc(O)cc1)C(=O)N[C@@H](CC(C)C)C(=O)N[C@@H](C)C(=O)N[C@@H](C)C(=O)N[C@H](C(=O)N[C@@H](CC(C)C)C(=O)N[C@@H](CO[C@@H]1O[C@H](CO[C@H]2O[C@H](CO)[C@H](O)[C@H](O)[C@H]2O)[C@@H](O)[C@H](O)[C@H]1O)C(N)=O)C(C)C)C(C)C)[C@@H](C)O [Compound 2LS80Mel]	slept comparable minutes to uninjured sham animals	prevented this injury-induced increase in sleep	–
[2H]C([2H])([2H])C([2H])(C([2H])([2H])[2H])[C@]([2H])(NC(=O)[C@H](C)NC(=O)[C@H](C)NC(=O)[C@H](CC(C)C)NC(=O)[C@H](Cc1ccc(O)cc1)NC(=O)[C@H](CCCCN)NC(=O)[C@H](CCCCN)NC(=O)[C@@]([2H])(NC(=O)[C@H](C)NC(=O)[C@H](CC(C)C)NC(=O)[C@H](CCC(N)=O)NC(=O)[C@H](CCCCN)NC(=O)[C@H](CCCNC(=N)N)NC(=O)[C@H](Cc1ccc(O)cc1)NC(=O)[C@H](CCCNC(=N)N)NC(=O)[C@H](CO)NC(=O)[C@H](Cc1ccc(O)cc1)NC(=O)[C@H](CO)NC(=O)[C@H](CC(=O)O)NC(=O)[C@@H](NC(=O)[C@H](Cc1ccccc1)NC(=O)[C@@H](NC(=O)CNC(=O)[C@H](CC(=O)O)NC(=O)[C@H](CO)NC(=O)[C@@H](N)Cc1c[nH]cn1)[C@@H](C)CC)[C@@H](C)O)C([2H])(C([2H])([2H])[2H])C([2H])([2H])[2H])C(=O)N[C@@H](CC(C)C)C(=O)N[C@@H](CO[C@@H]1O[C@H](CO)[C@@H](O[C@@H]2O[C@H](CO)[C@H](O)[C@H](O)[C@H]2O)[C@H](O)[C@H]1O)C(N)=O [Compound 2LS98Lac]	–	–	neuronal cell death was attenuated
